Test results published in patent US4269834A, “Copper complexes of isoquinazolines” (priority 1977, dated 1981).
Converted amounts (≈) assume the structure as drawn. Like-named read-outs stand apart in the source and are kept apart here.

Columns and labels:
Type in all cases: cell-based
Spiroplasma citri = assay: Activity against Spiroplasma citri (MIC); details: for MIC S.Citri (with Cu): Table IVb, with Cu (50 μg/ml Cu^2+); for MIC / MIC with Cu: Table III; for MIC: without added Cu; for MIC with Cu: media containing 50 μg/ml Cu^2+
Source text: (§1) The following tables show some activities--expressed as minimum inhibiting concentration (MIC)--of the prepared compounds against various micro-organisms. The compounds are identified by reference to the Example in which they are described. When more than one compound is mentioned in an Example, they are distinguished by a number between parentheses, corresponding to their order of occurrence, for instance: VI (2) refers to the second compound prepared according to Example VI. The term "with Cu" refers to tests conducted in media containing 50 μg/ml Cu^2+.
(§2) The activities of the following compounds, not mentioned in the Examples, were also measured.

Mycoplasma gallisepticum = assay: Activity against Mycoplasma gallisepticum (minimum inhibiting concentration); details: Table I; for MIC: without added Cu; for MIC with Cu: media containing 50 μg/ml Cu^2+
Source text: as §1, §2

M. hyorhinis = assay: Activity against other Mycoplasma species: M. hyorhinis (MIC); details: Table II, copper complexes, head 'with Cu' possibly not covering these columns
Source text: as §1

M. suipneumoniae = assay: Activity against other Mycoplasma species: M. suipneumoniae (MIC); details: Table II, copper complexes, head 'with Cu' possibly not covering these columns
Source text: as §1

[1] = test system: M. Hyorhinis (tylosin resistent); assay: Activity against other Mycoplasma species: M. Hyorhinis (tylosin resistent) (MIC); details: Table II, copper complexes, head 'with Cu' possibly not covering these columns
Source text: as §1

M. synoviae = assay: Activity against other Mycoplasma species: M. synoviae (MIC); details: Table II, with Cu (50 μg/ml Cu^2+)
Source text: as §1

M. meleagridis = assay: Activity against other Mycoplasma species: M. meleagridis (MIC); details: Table II, with Cu (50 μg/ml Cu^2+)
Source text: as §1

M. gallisepticum K514 = assay: Development of resistance of M. gallisepticum K514 in the presence of copper ions (repeated MIC determinations); details: 100 μg/ml Cu^2+; procedure repeated 12 times
Procedure: It was investigated whether M. gallisepticum K514 develops a resistance against the compounds of Examples IX (1), IX (2), VIIIe and XIIb in the presence of copper ions. The MIC's in the presence of 100 μg/ml Cu^2+ were determined in the usual way. The test tubes containing the highest concentration of each compound in which a considerable growth of micro-organism still occurred, were used for inoculation in a next determination. […] Consequently, no resistance is developed.

[2] = Mycoplasmoides gallisepticum, read-out: MIC

Structure (SMILES)	MIC with Cu (Spiroplasma citri) [µg/mL]	MIC with Cu (Mycoplasma gallisepticum) [µg/mL]	MIC (Mycoplasma gallisepticum; [2]) [µg/mL]	other results
Cc1ccc2ccc3ccc(C)nc3c2n1 [A]	–	–	–	MIC S.Citri (with Cu) (Spiroplasma citri): 0.03 µg/mL (≈ 0.144 µM)
COc1ccc2ccc3ccc(OC)nc3c2n1 [H]	–	–	–	MIC S.Citri (with Cu) (Spiroplasma citri): 1.5 µg/mL (≈ 6.24 µM)
Cc1ccc2ccc3ccc(C)nc3c2n1.Cc1ccc2ccc3ccc(C)nc3c2n1.O.O=[N+]([O-])[O-].O=[N+]([O-])[O-].[Cu+2] [VI (1), bis(2,9-dimethyl-1,10phenanthroline)cupric nitrate monohydrate]	–	–	–	MIC (Spiroplasma citri): 50 µg/mL; MIC (Mycoplasma gallisepticum): 0.4 µg/mL; MIC (M. hyorhinis): 3 µg/mL; MIC (M. suipneumoniae): 3 µg/mL; MIC [1]: 1 µg/mL
Cc1cccc(-c2cc3ccccc3c(C)n2)n1 [XIIb, 1-methyl-3(6-methyl-2-pyridyl)isoquinoline]	0.05	0.03	–	MIC with Cu (M. synoviae): 0.1 µg/mL; MIC with Cu (M. meleagridis): 0.05 µg/mL; Resistance development: change of MIC (M. gallisepticum K514): without a significant increase of the MIC's
CCCCCCCCCCc1ccc2c(N)nc(-c3ccccn3)cc2c1 [VIIIg]	0.8	0.06	100 (≈ 277 µM)	–
Nc1nc(-c2ccccn2)cc2ccccc12 [XIIc (1), 1-amino-3-(2-pyridyl)isoquinoline]	0.2	0.4	> 100	–
Cc1cccc(-c2cc3ccccc3c(N)n2)n1.Cc1cccc(-c2cc3ccccc3c(N)n2)n1.O=[N+]([O-])[O-].[Cu+] [IIf, Bis[1-amino-3-(6-methyl-2-pyridyl)isoquinoline]cuprous nitrate]	–	0.03	–	MIC (Spiroplasma citri): 25 µg/mL
CCc1nc(-c2ccccn2)cc2ccccc12 [XIIId, 1-ethyl-3-(2-pyridyl)isoquinoline]	0.2	0.06	–	–
Cc1cccc(-c2cc3ccccc3c(N)n2)n1.Cl [IX (1), 1-amino-3-(6-methyl-2-pyridyl)-isoquinoline hydrochloride]	0.4	0.03	100	MIC with Cu (M. synoviae): 0.025 µg/mL; MIC with Cu (M. meleagridis): 0.025 µg/mL; Resistance development: change of MIC (M. gallisepticum K514): without a significant increase of the MIC's
CCc1cccc2cc(-c3ccccn3)nc(N)c12 [VIIIf]	0.4	0.05	> 100	–
CCc1cccc(-c2cc3ccccc3c(N)n2)n1.Cl [IX (2), 1-amino-3-(6-ethyl-2-pyridyl) isoquinoline hydrochloride]	0.2	0.02	–	MIC with Cu (M. synoviae): 0.05 µg/mL; MIC with Cu (M. meleagridis): 0.013 µg/mL; Resistance development: change of MIC (M. gallisepticum K514): without a significant increase of the MIC's
Cc1cccc2cc(-c3ccccn3)nc(N)c12 [VIIIe]	0.1	0.06	100 (≈ 425 µM)	MIC with Cu (M. synoviae): 0.1 µg/mL; MIC with Cu (M. meleagridis): 0.05 µg/mL; Resistance development: change of MIC (M. gallisepticum K514): without a significant increase of the MIC's
CCCCCCCCCCCc1c(-c2ccccn2)ncc2ccccc12 [D]	–	–	–	MIC S.Citri (with Cu) (Spiroplasma citri): 0.8 µg/mL (≈ 2.22 µM)
Cc1cccc(-c2cc3ccccc3c(N)n2)n1.Cc1cccc(-c2cc3ccccc3c(N)n2)n1.O=[N+]([O-])[O-].O=[N+]([O-])[O-].[Cu+2] [VI (2), bis[1-amino-3-(6-methyl-2-pyridyl)isoquinoline]cupric nitrate]	–	–	–	MIC (Mycoplasma gallisepticum): 0.8 µg/mL
Cn1ccnc1-c1cc2ccccc2c(N)n1.O=[N+]([O-])[O-].O=[N+]([O-])[O-].[Cu+2] [XVb (2), mono[1-amino-3-(1-methyl-1H-imidazole-2-yl)isoquinoline]cupric nitrate]	–	1.5	–	MIC (Mycoplasma gallisepticum): 12.5 µg/mL
Cc1nc(-c2ccccn2)cc2ccccc12 [XIIc (3), 1-methyl-3-(2-pyridyl)isoquinoline]	0.2	0.06	6 (≈ 27.2 µM)	–
Clc1nc(-c2ccccn2)cc2ccccc12 [XIIc (2), 1-chloro-3-(2-pyridyl)isoquinoline]	–	0.06	–	–
C=Cn1ccnc1-c1cc2ccccc2c(N)n1.C=Cn1ccnc1-c1cc2ccccc2c(N)n1.O=[N+]([O-])[O-].O=[N+]([O-])[O-].[Cu+2] [XVIId (3), Bis[1-amino-3-(1-ethenyl-1H-imidazole-2-yl)isoquinoline]cupric nitrate]	–	0.2	–	MIC (Mycoplasma gallisepticum): 12.5 µg/mL
Cn1ccnc1-c1nc(N)c2ccccc2n1.Cn1ccnc1-c1nc(N)c2ccccc2n1.O=[N+]([O-])[O-].O=[N+]([O-])[O-].[Cu+2] [XVIb (3), Bis[4-amino-2-(1-methyl-1H-imidazole-2-yl)quinazoline]cupric nitrate]	–	0.2	–	MIC (Mycoplasma gallisepticum): 12.5 µg/mL
Nc1nc(-c2ccccn2)cc2c(Cl)cccc12 [VIIIh]	0.4	0.05	> 100	–
